Patent US20230150951A1, “2,5- OR 2,6-DISUBSTITUTED HYDROQUINONE DERIVATIVES WITH AT LEAST ONE CARBOXY, SULFO OR AMIDO GROUP USEFUL AS MEDICAMENTS” (OM PHARMA SA, priority 2020, published 2023)
Like-named read-outs stand apart in the source and are kept apart here.

Assays:
VEGFR-2 = biological target: T1, VEGFR-2 (Homo sapiens, UniProt P35968); test: VEGF-165 induced phosphorylation of VEGF-Receptor on HUVEC; type: cell-based; conditions: HUVEC preincubated 60 min, VEGF165 25 ng/mL 2 min; read-out: VEGFR-Phosphorylation inhibition IC50
T1 construct: endogenous in cells; host or cells: primary HUVEC

Human neutrophils = test: Neutrophil adhesion under static conditions; type: cell-based; conditions: fMLP-stimulated adhesion to fibrinogen; method: 40 μM and 80 μM, concentration of the value not stated
In short: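 Donor buffy-coat neutrophils (3×10^6/ml, PBS with Ca/Mg, 10% FCS, pH 7.2) preincubated 30 min at 37° C with 40 μM or 80 μM compound, then stimulated 1 min at 37° C with 1 nM fMLP on fibrinogen-coated glass. Adherent cells fixed and counted by computer; mean ± SD, unpaired t-test.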

IL-10 = test: Cytokine release after LPS induction on human whole blood: IL-10; type: cell-based
Procedure: (§1) Aim of this in vitro method is to assess compounds effects on release of a panel of cytokines from whole blood following lipopolysaccharide (LPS) induced inflammatory reaction. Whole blood was incubated with compounds for 1 h prior to LPS induction. Cytokine levels in blood were measured using a multiplex FACS-based panel.
(§2) IC50 values determined for the tested compounds expressed in microM [μM] and the values for the inhibition of cytokines were listed for each compound.
(§3) Effect on cytokines release after LPS induction was performed on the compounds dissolved in DMSO or H2O to reach 10-fold concentrated stock solutions and dissolved in culture media.
(§4) Test system: Whole blood was removed from a single donor (into lithium heparin coated tubes; BD Vacutainer; 367886) and diluted 1:5 with RPMI 1640 (Thermo Fisher, 61870036). Within 30 minutes of sampling, blood was incubated with compounds for 1 h prior to LPS stimulation (O111:B4—Sigma L4391; 10 ng/ml final concentration). Stimulation continued under standard cell culture conditions (37° C. with 5% CO2) overnight (18 h), after which plates were centrifuged and supernatant removed and frozen at −80° C. until used for analyses.
(§5) Dilution of test compounds: 10×concentrated solutions (concerning to the final assay concentrations) of each test compound were prepared with the appropriate solvent (in DMSO or in water). These 10× compound solutions (10 μl) were then added to 90 μl pre-diluted whole blood (whole blood: RPMI1640, 1:5) resulting in the final assay concentration.
(§6) Test method: Diluted whole blood (80 μl) was pre-incubated with compounds (10 μl) to give final assay concentrations of 100, 30, 10, 3, 1, 0.3 and 0.1×10^−6M. Blood was incubated at 37° C. with 5% CO2 for 1 h. LPS was diluted in cell culture media to a concentration of […]; 10 μl was added to the whole blood to give a final concentration of 10 ng/ml. Plates were incubated at 37° C. for 18 h. Plates were centrifuged at 3,000 RPM for 5 minutes at 4° C. and supernatant removed and frozen at −80° C. until FACS analysis was carried out.
(§7) Cytokine release was measured using a custom multiplex system (ELISA Genie) according to manufacturers instructions. Prepared samples were run on an Attune NxT flow cytometer (Thermo Fisher).
(§8) Quantification of cytokine release inhibition: known concentration standards were run as part of the cytokine panel to allow quantification of each cytokine concentration in each sample. This was carried out using FCAP Array v3.0 software.
(§9) Results: The dose response relationship on cytokine release following LPS induction of inflammatory response in whole blood was assessed for all compounds. IC50 values were determined for each compound for a panel of cytokines (GM-CSF, IFN-gamma, IL-1beta, IL-2, IL-4, IL-5, IL-6, IL-8, IL-9, IL-10, IL-12p40, IL-13, IL-17A, IL-17F, IL-18, IL-21, IL-22, IL-33, TGF-beta, TNF-alpha, TNF-beta).

IL-17F = test: Cytokine release after LPS induction on human whole blood: IL-17F; type: cell-based
Procedure: as §1, §2, §3, §4, §5, §6, §7, §8, §9

TNF-beta = test: Cytokine release after LPS induction on human whole blood: TNFβ; type: cell-based
Procedure: as §1, §2, §3, §4, §5, §6, §7, §8, §9

[1] = test system: STZ-induced diabetes model; test: STZ-induced diabetic nephropathy, kidney disease and retinopathy model (28 days treatment); conditions: for Serum CRP: 28 days of treatment, vs vehicle induced controls; for Serum TNF-α: 28 days, p<0.05; for Mean day 0 blood glucose Concentration (mmol/L) (SD) / Mean day 28 blood glucose Concentration (mmol/L) (SD) / Blood BUN / Disease Score (kidney, H&E) / Eye area (retinal flatmount area covered by vasculature) / Trichrome staining (Kidney fibrosis) / Blood CRP / Blood IL-6 / Blood TGF-beta / Blood TNF-alpha / Urine albumine creatinine ratio (ALB:CRE): 15 mg/kg IV, Captopril 50 mg/kg PO; for Blood BUN / Disease Score (kidney, H&E) / Eye area (retinal flatmount area covered by vasculature) / Trichrome staining (Kidney fibrosis) / Blood CRP / Blood IL-6 / Blood TGF-beta / Blood TNF-alpha / Urine albumine creatinine ratio (ALB:CRE): day 28 of treatment (week 9); for Blood CRP / Blood IL-6 / Blood TGF-beta / Blood TNF-alpha: serum; for Urine albumine creatinine ratio (ALB:CRE): urine pooled per group
Procedure: A total of 70 female CD-1 mice aged 5-7 weeks weighing approximately 25-30 g were used for the study. These were purchased from Charles River, UK and had 7 days acclimatization period. Animals were housed in IVC cages (up to 5 per cage) with individual mice identified by tail mark. All animals were allowed free access to a standard certified commercial diet and sanitised water during the study. The holding room was maintained under standard conditions: 18-24° C., 55-70% humidity and a 12 h light/dark cycle.
Mice were starved for 6 hours prior to injection. One week after completion of induction glucose levels were monitored and mice with levels less than 15 mml/L (280 mg/gL) were removed from the study as they had not developed the ideal severity of diabetes. Glucose levels were be monitored weekly and 5 weeks after STZ induction biochemical assessment of renal injury was carried out by measuring urine albumin and creatinine levels and confirming they were within the desired range. After successful completion of this stage animals were assigned to treatment groups.
Treatment continued for 4 weeks (28 days) with weekly measurement of blood glucose and urine albumin/creatinine. The study schedule is detailed below looking at weekly (week 5 to 9) blood glucose levels, urine albumin creatinie ratios, and terminal (week 9) blood chemistry and cytokines, kidney histology and eye-retinal leakage.
Urine Albumin: Creatinine (ALB: CRE): Urine was collected weekly and pooled for each treatment group.
ELISAs: At the end of the treatment period blood was collected and processed to serum. Serum levels of CRP, TGF-β, IL-6 and TNF-α were quantified using commercially available ELISA kits, results are shown in Table 56.

[2] = Homo sapiens, LPS 10 ng/ml, 18 h, read-out: Whole Blood: IL-10 IC50
[3] = human whole blood, inhibition of LPS induced inflammation, read-out: IC50 IL-10
[4] = Homo sapiens, LPS 10 ng/ml, 18 h, read-out: Whole Blood: IL-17F IC50
[5] = human whole blood, inhibition of LPS induced inflammation, read-out: IC50 IL-17F
[6] = Homo sapiens, LPS 10 ng/ml, 18 h, read-out: Whole Blood: TNF β IC50
[7] = human whole blood, inhibition of LPS induced inflammation, read-out: IC50 β

T1 sequence (P35968 20-1356): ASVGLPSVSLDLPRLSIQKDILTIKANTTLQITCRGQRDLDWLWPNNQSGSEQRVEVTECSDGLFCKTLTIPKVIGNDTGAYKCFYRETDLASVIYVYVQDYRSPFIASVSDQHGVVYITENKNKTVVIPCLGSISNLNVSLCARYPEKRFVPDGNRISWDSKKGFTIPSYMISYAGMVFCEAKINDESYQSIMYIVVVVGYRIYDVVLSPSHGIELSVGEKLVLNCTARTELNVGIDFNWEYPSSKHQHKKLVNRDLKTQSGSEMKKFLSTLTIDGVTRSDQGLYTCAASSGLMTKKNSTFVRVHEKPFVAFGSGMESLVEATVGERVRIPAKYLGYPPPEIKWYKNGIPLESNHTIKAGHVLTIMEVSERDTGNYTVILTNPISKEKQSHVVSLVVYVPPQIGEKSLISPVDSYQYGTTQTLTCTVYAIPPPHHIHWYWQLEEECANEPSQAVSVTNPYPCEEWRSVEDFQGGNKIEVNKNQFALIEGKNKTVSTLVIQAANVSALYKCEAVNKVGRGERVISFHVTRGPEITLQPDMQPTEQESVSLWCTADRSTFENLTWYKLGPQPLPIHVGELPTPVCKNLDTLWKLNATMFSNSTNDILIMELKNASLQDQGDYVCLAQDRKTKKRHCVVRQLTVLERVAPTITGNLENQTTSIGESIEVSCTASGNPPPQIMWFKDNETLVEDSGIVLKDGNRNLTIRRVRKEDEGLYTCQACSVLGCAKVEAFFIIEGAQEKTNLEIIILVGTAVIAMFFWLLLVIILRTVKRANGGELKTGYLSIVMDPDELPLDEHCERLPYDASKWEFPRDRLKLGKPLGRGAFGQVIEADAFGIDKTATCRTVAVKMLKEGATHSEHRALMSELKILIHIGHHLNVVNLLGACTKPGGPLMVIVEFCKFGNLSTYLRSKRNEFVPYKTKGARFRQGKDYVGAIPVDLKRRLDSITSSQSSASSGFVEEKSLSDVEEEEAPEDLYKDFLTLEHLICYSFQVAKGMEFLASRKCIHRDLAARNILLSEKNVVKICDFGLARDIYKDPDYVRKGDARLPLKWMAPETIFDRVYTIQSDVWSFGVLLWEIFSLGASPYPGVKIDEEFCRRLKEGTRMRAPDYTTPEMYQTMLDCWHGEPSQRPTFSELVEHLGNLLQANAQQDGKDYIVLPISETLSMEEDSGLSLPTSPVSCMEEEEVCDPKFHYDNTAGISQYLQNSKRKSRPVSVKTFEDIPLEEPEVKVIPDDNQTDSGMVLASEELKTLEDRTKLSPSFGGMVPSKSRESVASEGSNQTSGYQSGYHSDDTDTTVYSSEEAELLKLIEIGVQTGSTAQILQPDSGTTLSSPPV

IC50 (VEGFR-2)	IC50 (IL-10; [2])	IC50 (IL-10; [3])	IC50 (IL-17F; [4])	IC50 (IL-17F; [5])	IC50 (TNF-beta; [6])	IC50 (TNF-beta; [7])	Structure (SMILES)	Neutrophil adhesion inhibition (Human neutrophils)	Serum CRP [1]	Serum TNF-α [1]	Mean day 0 blood glucose Concentration (mmol/L) (SD) [1]	Mean day 28 blood glucose Concentration (mmol/L) (SD) [1]	Blood BUN [1]	Disease Score (kidney, H&E) [1]	Eye area (retinal flatmount area covered by vasculature) [1]	Trichrome staining (Kidney fibrosis) [1]	Blood CRP [1]	Blood IL-6 [1]	Blood TGF-beta [1]	Blood TNF-alpha [1]	also measured
0.23 µM	26.1 µM	26.1 µM	46.5 µM	46.5 µM	53 µM	53 µM	O=C(O)c1cc(O)c(C(=O)Nc2ccccc2-c2nnn[nH]2)cc1O [Ia-001a-Tz, 4-(2-(1H-tetrazol-5-yl)phenyl-aminocarbonyl)-2,5-dihydroxybenzoic acid]	69.75%	significantly reduced	significantly lower than vehicle induced controls	24.9 (7.4) mmol/L	30.8 (6.2) mmol/L	25.3 ± 3.1	8 ± 3	11.8 ± 1	2.6 ± 0.98	5191 ± 993	112.35 ± 20.01	14.76 ± 2.95	327 ± 40.7	Urine albumine creatinine ratio (ALB:CRE) [1]: 29.86
2.25 µM	> 100 µM	100 µM	14.7 µM	14.7 µM	13.2 µM	13.2 µM	O=C(O)c1cc(O)c(C(=O)Nc2ccccc2C(=O)O)cc1O [Ia-001a, 4-(2-carboxyphenylaminocarbonyl)-2,5-dihydroxybenzoic acid]	44.3%	significantly reduced	significantly lower than vehicle induced controls	25.7 (6.3) mmol/L	31.6 (3.8) mmol/L	25.1 ± 3.1	7 ± 1	9.9 ± 1.9	1.87 ± 0.65	4759 ± 1181	114.16 ± 29.96	15.54 ± 2.8	342.3 ± 15.6	Urine albumine creatinine ratio (ALB:CRE) [1]: 35.68
